# Experimental data from patent US20070248705A1, “Agents for Activating the Transcription Factor Nrf2 and Foods Having Such Function” (KIRIN BEER KABUSHIKI KAISHA, priority 2004, published 2007).
# Tests used:
# [1] = system: quinone reductase (QR) activity in mouse hepatoma Hepa1c1c7 cells; test: Induction of quinone reductase (QR) activity; format: cell-based; settings: Hepa1c1c7 cells, 0.6, 1.7, 5, and 15 μM, 48 hours; listed as HI (F)
# Experimental: It has been known that quinone reductase (QR) activity is increased by increasing the expression of NAD(P)H:quinone oxidoreductase (NQO1) by Nrf2 activation (Proc Natl Acad Sci USA. 101, 10446-51 (2004)). Accordingly, isohumulones were allowed to act on mouse hepatoma Hepa1c1c7 cells (available from Dainippon Pharmaceutical Co., Ltd.) to examine whether the QR activity was induced.
# The QR activity was measured in accordance with the method described in Analytical Biochemistry 169, 328-336 (1988).
# A mouse hepatoma cell line Hepa1c1c7 was seeded on a 96-well plate (7-10×10^3 cells/well), 50 μl each of an α-MEM medium (Invitrogen) supplemented with 10% fetal bovine serum (HyClone) and penicillin-streptomycin (100 units/ml and 100 μg/ml, respectively; Sigma) was added, and the plate was incubated at […] in an atmosphere of 5% CO2 overnight. Next, the culture medium was replaced with a medium containing isomerized hop extract individually at a concentration of 1.9, 5.6, 16.7, or 50 μg/ml, or with a medium containing humulone (H), cohumulone (cH), adhumulone (aH), isohumulone (IH), isohumulone (IcH), or isohumulone (IaH) individually at a concentration of 0.6, 1.7, 5, and 15 μM and the plate was further incubated for 48 hours. Then, the cells in each well were broken using 0.08% digitonin and a 2 mM EDTA solution and absorption at 610 nm was measured by a menadione-formazan system using a microplate reader (Power Wave 200, Bio-Tek Instruments).
# The QR inducing activity was calculated as a relative activity setting the activity of cells without addition to be 1 (n=3, mean±standard variation). Sulforaphane (Sul, available from Sigma) was used as a positive control.
# [2] = system: glucose-6-phosphate dehydrogenase, X-linked (G6PDX); test: Expression of genes controlled by Nrf2 in RAW264.7: G6PDX; format: cell-based, mouse; settings: RAW264.7, 25 μM, 20 hours
# Experimental: (§1) A mouse macrophage cell line RAW264.7 was seeded on a φ60 mm dish (9×10^5 cells), 2 ml of a D-MEM medium (Invitrogen) supplemented with 10% fetal bovine serum (HyClone) and penicillin-streptomycin (100 units/ml and 100 μg/ml, respectively; Sigma) was added, and the dish was incubated at 37° C. in an atmosphere of 5% CO2 for 2 days. The medium was replaced with a fresh medium containing individual samples and incubation was continued for another 20 hours. Then, the total RNA was prepared using TRIzol (Invitrogen) and purified using a RNeasy Mini kit (Qiagen) and an RNase-free DNase set (Qiagen). Further, cDNA was synthesized from 5 μg of the purified total RNA using a Thermo Script RT-PCR system (Invitrogen), and the amount of mRNA expression of various genes was determined using a FastStart DNA Master SYBR Green I kit (Roche) and a Light Cycler (Roche).
# (§2) The amount of expression of the various genes was corrected by the amount of expression of the housekeeping gene PO and calculated as a relative expression level (n=2, mean±standard deviation). […]
# [3] = system: glutathione S-transferase mu1 (GSTM1); test: Expression of genes controlled by Nrf2 in RAW264.7: GSTM1; format: cell-based, mouse; settings: RAW264.7, 25 μM, 20 hours
# Experimental: as §1, §2
# [4] = system: glucose-6-phosphate dehydrogenase 2 (G6PD2); test: Expression of genes controlled by Nrf2 in RAW264.7: G6PD2; format: cell-based, mouse; settings: RAW264.7, 25 μM, 20 hours
# Experimental: as §1, §2
# [5] = system: NAD(P)H:quinone oxidoreductase (NQO1); test: Expression of genes controlled by Nrf2 in RAW264.7: NQO1; format: cell-based, mouse; settings: RAW264.7, 25 μM, 20 hours
# Experimental: as §1, §2
# [6] = system: mouse macrophage cell line RAW264.7; test: Suppressive action on cell death by hydrogen peroxide; format: cell-based; settings: RAW264.7, 25 μM, 2 hours
# Experimental: A mouse macrophage cell line RAW264.7 (6×10^4 cells/well) was incubated on a 96-well plate in 100 μl of a D-MEM medium (Invitrogen) containing individual samples, 10% fetal bovine serum (HyClone), and penicillin-streptomycin (100 units/ml and 100 μg/ml, respectively; Sigma) at 37° C. in an atmosphere of 5% CO2 overnight. The samples added were isohumulone (IH(F)) and isohumulone (IcH(G)) at a concentration of 25 μM. Hydrogen peroxide (Wako Pure Chemical Industries) was added hereto at a final concentration of 0.8 or 1.0 mM and incubation was continued for another 2 hours. Then, adsorption at 440 nm was measured using a microplate reader (Power Wave 200, Bio-Tek Instruments) with a cell growth reagent WST-1 (Roche Diagnostics). The cell survival rate for each sample was calculated by setting the value without hydrogen peroxide as 100% (n=2, mean±standard variation). As a positive control, 15dPGJ2 (Cayman Chemical) was used.
# [7] = system: glutathione S-transferase pi2 (GSTP2); test: Expression of genes controlled by Nrf2 in RAW264.7: GSTP2; format: cell-based, mouse; settings: RAW264.7, 25 μM, 20 hours
# Experimental: as §1, §2
smiles,measurement,setting,value
"CC(C)=CCC(=O)C1(O)C(O)=C(C(=O)CC(C)C)C(=O)C1CC=C(C)C (centres unmarked) [IH (F), isohumulone]",QR inducing activity,[1],activity was higher in isohumulones having a higher trans form content
same,expression of G6PDX,[2],augmented the expression
same,expression of GSTM1,[3],augmented the expression
same,expression of G6PD2,[4],augmented the expression
same,expression of NQO1,[5],augmented the expression
same,cell death by hydrogen peroxide (cell survival rate),[6]; hydrogen peroxide 0.8 mM,suppressed cell death
same,cell death by hydrogen peroxide (cell survival rate),[6]; hydrogen peroxide 1.0 mM,suppressed cell death
same,expression of GSTP2,[7],augmented the expression
